The record followed here is PubChem BioAssay (NCI).

Molecules are shown by their SMILES. Values joined by “and” are separate entries in the source; they are usually repeats but may differ in a detail not shown here. Identical values can stand only once.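 96-well plates; 48 h exposure; 5 concentrations. Endpoints by linear interpolation between flanking doses. Not reached: highest tested concentration assigned. GI50 = concentration required for 50% inhibition of growth. TGI denotes the concentration required for complete inhibition of growth.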 A value given as a limit tells only on which side of the number the result lay.

Test systems include SN12C renal; EKVX NSCLC; KM12 colon; UACC-62 melanoma; RXF 393 renal; CAKI-1 renal; HT29 colon; OVCAR-3 ovarian; SK-OV-3 ovarian; MOLT-4 leukemia.
What all share (assay): NCI tumour cell line growth inhibition, 48 h

Consider `CCOC(=O)C(N=C(c1ccccc1)c1ccccc1)N(C(=O)OC(C)(C)C)C(=O)OC(C)(C)C` (configuration not stated), for which the TGI in the assay with SN12C renal, with EKVX NSCLC, in the assay on KM12 colon, with UACC-62 melanoma, with RXF 393 renal and in the assay on CAKI-1 renal was more than 100 µM throughout. Besides, the TGI in the assay on HT29 colon, with OVCAR-3 ovarian, with SK-OV-3 ovarian and in the assay on MOLT-4 leukemia was more than 100 µM throughout.
As for `COc1ccc2c(O)c(/C=C3\N=Nc4ccccc43)oc2c1C[C@@H]1CCNC[C@H]1F`, the GI50 was 12.2 µM in the assay on EKVX NSCLC; 695 nM in the assay on KM12 colon; 1.66 µM in the assay on RXF 393 renal; 12.3 µM in the assay with CAKI-1 renal; 2700 nM with HT29 colon; 1990 nM with OVCAR-3 ovarian. Also, the GI50 in the assay on SK-OV-3 ovarian was 17.2 µM; with MOLT-4 leukemia it was 4.5 µM. The TGI in the assay on EKVX NSCLC was found to be 25.5 µM; with KM12 colon, 12 µM; in the assay with RXF 393 renal it was 3.17 µM; in the assay with CAKI-1 renal it was 25 µM; with HT29 colon it was 11 µM; in the assay on OVCAR-3 ovarian, 3.98 µM. In addition, the TGI in the assay on SK-OV-3 ovarian is 31.7 µM; with MOLT-4 leukemia, 21.1 µM.
Consider `COc1ccc2c(c1)[nH]c(=O)c1c3ccccc3cn21`, for which the GI50 in the assay on SN12C renal was 57.1 nM and 280 nM; in the assay on EKVX NSCLC, 0.0907 µM and < 0.0478 µM; in the assay with KM12 colon it was 33.1 nM and < 48.6 nM; with UACC-62 melanoma, 0.0738 µM; in the assay with RXF 393 renal it was 0.0204 µM; in the assay on CAKI-1 renal, 0.0355 µM. The GI50 with HT29 colon was 34 nM; in the assay on OVCAR-3 ovarian, 22.3 nM; in the assay with MOLT-4 leukemia, 0.0778 µM. Besides, the TGI in the assay on SN12C renal was 2.08 µM and 8.97 µM; in the assay with EKVX NSCLC, 19.1 µM; in the assay on UACC-62 melanoma, 1.89 µM and 13.3 µM; with RXF 393 renal, 3.19 µM and 2.47 µM; in the assay on CAKI-1 renal, 1.97 µM and 5.38 µM; in the assay with OVCAR-3 ovarian it was 0.0652 µM. Also, the TGI in the assay with MOLT-4 leukemia is 2.14 µM and 9.95 µM.
In the case of `CCCc1cc(=O)n2c(C(=O)Nc3cccc(C(=O)OCC)c3)c(C(=O)Nc3ccc(F)cc3)sc2n1`, the GI50 was more than 140 µM with EKVX NSCLC; 42500 nM with KM12 colon; 48.4 µM with UACC-62 melanoma; 5.3 µM with RXF 393 renal; 4.95 µM in the assay on CAKI-1 renal; 87900 nM in the assay with HT29 colon. For the same compound, the GI50 is 3170 nM with OVCAR-3 ovarian, 23.9 µM with SK-OV-3 ovarian and more than 140 µM in the assay on MOLT-4 leukemia. Moreover, the TGI with EKVX NSCLC is more than 140 µM; in the assay with KM12 colon, more than 140 µM; in the assay with UACC-62 melanoma it was more than 140 µM; in the assay on RXF 393 renal, 13.4 µM; in the assay on CAKI-1 renal it was 28.2 µM; in the assay on HT29 colon, more than 140 µM. For the same compound, the figures for the TGI with OVCAR-3 ovarian, with SK-OV-3 ovarian and in the assay with MOLT-4 leukemia were 7.75 µM, 75 µM and more than 140 µM, respectively.
Consider `O=c1[nH]c(=O)c2cc3cc(C4CC(O)C(CO)O4)ccc3cc2[nH]1` (configuration not stated), for which the GI50 in the assay with SN12C renal is more than 100000 nM; in the assay on EKVX NSCLC it was more than 100 µM; in the assay with UACC-62 melanoma it was more than 100 µM; in the assay with RXF 393 renal, more than 100 µM; in the assay with CAKI-1 renal, more than 100 µM; in the assay with HT29 colon it was more than 100000 nM. Moreover, the figures for the GI50 in the assay with OVCAR-3 ovarian, in the assay with SK-OV-3 ovarian and in the assay on MOLT-4 leukemia were more than 100000 nM, more than 100 µM and more than 100 µM, respectively. The TGI in the assay on SN12C renal, in the assay on EKVX NSCLC, in the assay on UACC-62 melanoma, in the assay on RXF 393 renal, with CAKI-1 renal and in the assay on HT29 colon was more than 100 µM in each case. In addition, the TGI with OVCAR-3 ovarian, with SK-OV-3 ovarian and in the assay with MOLT-4 leukemia was more than 100 µM in each case.
On to `CCCCCCCCCCCC(=O)N1CCN(C(C)=O)CC1`, for which the GI50 in the assay on SN12C renal is 18800 nM; in the assay on EKVX NSCLC it was 33.5 µM; with KM12 colon it was 25000 nM; with UACC-62 melanoma, 19.7 µM; with RXF 393 renal it was 15.4 µM; with CAKI-1 renal, 19.9 µM. The GI50 with OVCAR-3 ovarian is 27600 nM; with SK-OV-3 ovarian it was 20.7 µM; in the assay with MOLT-4 leukemia, 20.8 µM. Besides, the TGI in the assay with SN12C renal is 37.3 µM; in the assay on EKVX NSCLC, more than 100 µM; with KM12 colon it was 56.5 µM; in the assay on UACC-62 melanoma, 34.9 µM; with RXF 393 renal it was 33.4 µM; in the assay on CAKI-1 renal, 38.9 µM. The TGI with OVCAR-3 ovarian was 95 µM; in the assay on SK-OV-3 ovarian, 39.7 µM; in the assay with MOLT-4 leukemia it was 47.8 µM.
In the case of `Cc1cc(C)n(-c2ccnc3cc(Cl)ccc23)n1`, the TGI in the assay with SN12C renal, with EKVX NSCLC, in the assay with KM12 colon, in the assay on UACC-62 melanoma, in the assay on RXF 393 renal and in the assay with HT29 colon was more than 100 µM each time. Further, the TGI in the assay with OVCAR-3 ovarian, with SK-OV-3 ovarian and in the assay on MOLT-4 leukemia was more than 100 µM throughout.
Turning to `O=C(/C(=C/c1ccc([N+](=O)[O-])cc1)SCc1ccc(Cl)cc1)c1ccc(F)cc1`, the GI50 in the assay with SN12C renal was 2400 nM; in the assay with EKVX NSCLC, 3.78 µM; in the assay on KM12 colon, 2710 nM; with UACC-62 melanoma, 2.27 µM; with RXF 393 renal, 5.75 µM; in the assay on HT29 colon it was 2000 nM. In addition, the GI50 in the assay with OVCAR-3 ovarian was 2200 nM; in the assay on SK-OV-3 ovarian, 16.6 µM; with MOLT-4 leukemia it was 2.83 µM. Moreover, the TGI in the assay on SN12C renal was 7.43 µM; in the assay with EKVX NSCLC it was 15.2 µM; in the assay on KM12 colon, 8.08 µM; in the assay with UACC-62 melanoma it was 8.47 µM; with RXF 393 renal, 18.3 µM; in the assay with HT29 colon, 4.12 µM. For the same compound, the TGI with OVCAR-3 ovarian is 5.13 µM; in the assay on SK-OV-3 ovarian it was 63.5 µM; in the assay on MOLT-4 leukemia, more than 100 µM.
Take `Nc1nc(Cl)cc(NCC(O)CO)n1` (configuration not stated): the TGI with SN12C renal, in the assay with EKVX NSCLC, with KM12 colon, in the assay on UACC-62 melanoma, in the assay on RXF 393 renal and with HT29 colon was more than 100 µM throughout. Besides, the TGI in the assay on OVCAR-3 ovarian, in the assay with SK-OV-3 ovarian and with MOLT-4 leukemia was more than 100 µM in each case.
